Assay results reported in US20120121591A1 (priority 2009, published 2012).

Tests used:
Format in all cases: cell-based
[1] = system: IL-2 secretion from T cells in human whole blood; conditions: read-out: WB (IL-2) IC50 (nM, Avg)
hKv1.3 = hKv1.3 (Homo sapiens, UniProt P22001); assay: cell-based; conditions: Kv1.3 (IWQ) IC50 (nM, Avg)
[2] = system: IFN-g secretion from T cells in human whole blood; conditions: read-out: WB (IFNg) IC50 (nM, Avg)

hKv1.3, sequence (P22001 whole entry): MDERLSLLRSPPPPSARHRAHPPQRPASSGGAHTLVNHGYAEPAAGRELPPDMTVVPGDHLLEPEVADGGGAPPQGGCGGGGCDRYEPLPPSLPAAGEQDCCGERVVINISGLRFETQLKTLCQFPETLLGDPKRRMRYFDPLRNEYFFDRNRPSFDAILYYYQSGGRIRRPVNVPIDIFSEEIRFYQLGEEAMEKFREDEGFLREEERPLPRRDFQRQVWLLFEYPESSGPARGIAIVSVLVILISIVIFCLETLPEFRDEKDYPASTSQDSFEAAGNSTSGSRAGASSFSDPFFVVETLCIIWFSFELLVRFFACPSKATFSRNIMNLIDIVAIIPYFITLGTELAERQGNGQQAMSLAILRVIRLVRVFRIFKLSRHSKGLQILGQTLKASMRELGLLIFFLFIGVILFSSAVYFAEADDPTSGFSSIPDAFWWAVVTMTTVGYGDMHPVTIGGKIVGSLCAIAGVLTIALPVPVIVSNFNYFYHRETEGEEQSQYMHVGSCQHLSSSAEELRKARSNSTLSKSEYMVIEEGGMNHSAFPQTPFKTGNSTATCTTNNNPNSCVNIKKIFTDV

SMILES | IC50 [1] [nM] | IC50 (hKv1.3) [nM] | IC50 [2] [nM]
CC[C@H](C)[C@@H]1NC(=O)[C@@H](NC(=O)[C@H](CO)NC(=O)[C@@H](N)CCCNC(=N)N)CSSC[C@@H](C(N)=O)NC(=O)[C@H]([C@@H](C)O)NC(=O)CNC(=O)[C@@H]2CSSC[C@@H]3NC(=O)[C@H](CCCCN)NC(=O)[C@H](Cc4ccccc4)NC(=O)[C@H](C)NC(=O)[C@H]([C@@H](C)O)NC(=O)[C@H](CSSC[C@H](NC(=O)[C@H](Cc4ccccc4)NC(=O)[C@H](CO)NC(=O)[C@H](CC(C)C)NC(=O)[C@H](CCCNC(=N)N)NC(=O)[C@H](Cc4ccc(O)cc4)NC(=O)[C@H](CCCCN)NC(=O)[C@H](CCSC)NC(=O)[C@H](CO)NC(=O)[C@H](Cc4c[nH]cn4)NC(=O)[C@H](CCC(=O)O)NC3=O)C(=O)N[C@@H](CCCNC(=N)N)C(=O)N[C@@H](CCCCN)C(=O)N[C@@H]([C@@H](C)O)C(=O)N2)NC(=O)[C@H](CCCNC(=N)N)NC(=O)[C@H](CO)NC(=O)[C@H](CCCCN)NC(=O)[C@@H]2CCCN2C(=O)[C@H]([C@@H](C)CC)NC(=O)[C@H]([C@@H](C)O)NC(=O)[C@H](CC(=O)O)NC1=O [[Lys16, Glu18]ShK-amide] | 0.119 | 0.065 | 0.234
CC[C@H](C)[C@@H]1NC(=O)[C@@H](NC(=O)[C@H](CO)NC(=O)[C@@H](N)CCCNC(=N)N)CSSC[C@@H](C(N)=O)NC(=O)[C@H]([C@@H](C)O)NC(=O)CNC(=O)[C@@H]2CSSC[C@@H]3NC(=O)[C@H](CCCCN)NC(=O)[C@H](Cc4ccccc4)NC(=O)[C@H](C)NC(=O)[C@H]([C@@H](C)O)NC(=O)[C@H](CSSC[C@H](NC(=O)[C@H](Cc4ccccc4)NC(=O)[C@H](CO)NC(=O)[C@H](CC(C)C)NC(=O)[C@H](CCCNC(=N)N)NC(=O)[C@H](Cc4ccc(O)cc4)NC(=O)[C@H](CCCCN)NC(=O)[C@H](CCSC)NC(=O)[C@H](CO)NC(=O)[C@H](Cc4c[nH]cn4)NC(=O)[C@H](CCCCN)NC3=O)C(=O)N[C@@H](CCCNC(=N)N)C(=O)N[C@@H](CCC(=O)O)C(=O)N[C@@H]([C@@H](C)O)C(=O)N2)NC(=O)[C@H](CCCNC(=N)N)NC(=O)[C@H](CO)NC(=O)[C@H](CCCCN)NC(=O)[C@@H]2CCCN2C(=O)[C@H]([C@@H](C)CC)NC(=O)[C@H]([C@@H](C)O)NC(=O)[C@H](CC(=O)O)NC1=O [[Lys16, Glu30]ShK-amide] | 0.105 | 0.028 | 0.144
CC[C@H](C)[C@@H]1NC(=O)[C@@H](NC(=O)[C@H](CO)NC(=O)[C@@H](N)CCCNC(=N)N)CSSC[C@@H](C(=O)O)NC(=O)[C@H]([C@@H](C)O)NC(=O)CNC(=O)[C@@H]2CSSC[C@@H]3NC(=O)[C@H](CCCCN)NC(=O)[C@H](Cc4ccccc4)NC(=O)[C@H](C)NC(=O)[C@H]([C@@H](C)O)NC(=O)[C@H](CSSC[C@H](NC(=O)[C@H](Cc4ccccc4)NC(=O)[C@H](CO)NC(=O)[C@H](CC(C)C)NC(=O)[C@H](CCCNC(=N)N)NC(=O)[C@H](Cc4ccc(O)cc4)NC(=O)[C@H](CCCCN)NC(=O)[C@H](CCSC)NC(=O)[C@H](CO)NC(=O)[C@H](Cc4c[nH]cn4)NC(=O)[C@H](CCCCN)NC3=O)C(=O)N[C@@H](CCCNC(=N)N)C(=O)N[C@@H](CCC(=O)O)C(=O)N[C@@H]([C@@H](C)O)C(=O)N2)NC(=O)[C@H](CCCNC(=N)N)NC(=O)[C@H](CO)NC(=O)[C@H](CCCCN)NC(=O)[C@@H]2CCCN2C(=O)[C@H]([C@@H](C)CC)NC(=O)[C@H]([C@@H](C)O)NC(=O)[C@H](CC(=O)O)NC1=O [[Lys16, Glu30]ShK] | 0.032 | 0.073 | 0.081
